Measured values: US20200239398A1, “METHYLENE-CYCLOALKYLACETATE DERIVATIVES AND THEIR USE IN TREATMENT OF NEUROTROPIC CONDITIONS” (Yissum Research Development Company of The Hebrew …, priority 2018, published 2020)
Where two headings read alike, the source gives them in different places.

What was measured:
[1] = target: T1, Adrenergic Receptor α2A (ADRA2A) (Homo sapiens, UniProt P08913); assay: SAFETYscan ADRA2A cAMP; type: cell-based; details: 10 μM HU-MCA-13
T1 sequence (P08913 1-465): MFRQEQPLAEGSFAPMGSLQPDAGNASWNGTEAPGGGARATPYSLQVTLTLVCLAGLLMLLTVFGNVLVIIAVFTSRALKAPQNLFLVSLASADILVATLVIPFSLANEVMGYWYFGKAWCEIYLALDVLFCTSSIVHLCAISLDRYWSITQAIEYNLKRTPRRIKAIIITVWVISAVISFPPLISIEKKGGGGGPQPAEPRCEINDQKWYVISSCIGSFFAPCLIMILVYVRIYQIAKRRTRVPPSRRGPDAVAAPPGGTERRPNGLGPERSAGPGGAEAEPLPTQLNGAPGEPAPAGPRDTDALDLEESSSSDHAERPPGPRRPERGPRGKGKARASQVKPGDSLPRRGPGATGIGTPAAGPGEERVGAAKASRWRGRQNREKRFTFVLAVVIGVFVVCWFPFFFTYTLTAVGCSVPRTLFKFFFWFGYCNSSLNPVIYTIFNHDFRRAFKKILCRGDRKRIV

[2] = target: T2, cAMP-specific 3′,5′-cyclic phosphodiesterase 4D2 (PDE4D2) (Homo sapiens, UniProt Q08499); assay: SAFETYscan PDE4D2 Enzymatic; type: biochemical; details: Inhibitor mode; 10 μM HU-MCA-13; read-out: Maximal Response
T2 construct: DiscoverX (SAFETYscan contract panel)

[3] = target: T3, Nuclear Hormone Glucocorticoid Receptor (GR) (Homo sapiens, UniProt P04150); assay: SAFETYscan GR Nuclear Hormone Receptor Translocation; type: cell-based; details: 10 μM HU-MCA-13, read-out: Maximal Response
T3 construct: DiscoverX (SAFETYscan contract panel)
T3 sequence (P04150 whole entry): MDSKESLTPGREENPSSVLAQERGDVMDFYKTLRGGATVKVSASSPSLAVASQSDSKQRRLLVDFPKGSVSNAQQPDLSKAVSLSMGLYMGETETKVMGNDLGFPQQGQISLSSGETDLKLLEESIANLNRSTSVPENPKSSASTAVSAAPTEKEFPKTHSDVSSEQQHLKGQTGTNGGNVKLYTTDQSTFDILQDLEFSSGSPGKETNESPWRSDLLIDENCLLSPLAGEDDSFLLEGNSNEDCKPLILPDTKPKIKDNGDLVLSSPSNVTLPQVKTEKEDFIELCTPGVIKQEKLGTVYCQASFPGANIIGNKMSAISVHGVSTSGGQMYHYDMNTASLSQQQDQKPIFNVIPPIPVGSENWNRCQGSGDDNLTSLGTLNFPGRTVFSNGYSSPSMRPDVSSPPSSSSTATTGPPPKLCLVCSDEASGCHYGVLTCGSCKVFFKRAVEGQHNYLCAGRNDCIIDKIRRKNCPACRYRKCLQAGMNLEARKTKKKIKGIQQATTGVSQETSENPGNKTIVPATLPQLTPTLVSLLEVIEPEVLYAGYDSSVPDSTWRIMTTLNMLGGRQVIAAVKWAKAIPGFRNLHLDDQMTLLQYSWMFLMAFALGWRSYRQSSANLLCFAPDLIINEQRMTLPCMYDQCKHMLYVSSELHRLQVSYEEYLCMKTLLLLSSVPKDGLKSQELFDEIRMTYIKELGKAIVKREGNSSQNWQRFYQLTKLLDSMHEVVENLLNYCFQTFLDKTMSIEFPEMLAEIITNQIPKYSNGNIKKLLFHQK

[4] = target: T4, Dopamine transporter (DAT) (Homo sapiens, UniProt Q01959); assay: SAFETYscan DAT Transporter; type: cell-based; details: Blocker mode; 10 μM HU-MCA-13; read-out: Maximal Response
T4 construct: DiscoverX (SAFETYscan contract panel)

male C57BL/6 mice = assay: Blood analysis 24 hours after injection; type: in vivo
Method: Tail vein blood samples were taken from DMSO 1% treated control (n=3) and HU-MCA-13-injected mice (n=4) after 24 hours from injection and submitted for hematocrit cell counting and biochemical analysis. Blood analyses are depicted in FIG. 4. No difference in any assay (blood count, electrolytes, coagulation parameters) was noted between the DMSO and HU-MCA-13-injected mice. Of special importance are normal liver (ALP, AST, ALT) functions and normal kidney (creatinine and blood urea nitrogen) functions, indicating sufficient organ integrity at the end of the experimental period.

[5] = target: T5, Acetylcholinesterase (AChE) (Homo sapiens, UniProt P22303); assay: SAFETYscan AChE Enzymatic; type: biochemical; details: Inhibitor mode; 10 μM HU-MCA-13; read-out: Maximal Response
T5 construct: DiscoverX (SAFETYscan contract panel)

[6] = target: Cholecystokinin Receptor A (CCKAR) (Homo sapiens, UniProt P32238); assay: SAFETYscan CCKAR Calcium Flux; type: cell-based; details: 10 μM HU-MCA-13, read-out: Maximal Response
Sequence of Cholecystokinin Receptor A (CCKAR) (P32238 whole entry): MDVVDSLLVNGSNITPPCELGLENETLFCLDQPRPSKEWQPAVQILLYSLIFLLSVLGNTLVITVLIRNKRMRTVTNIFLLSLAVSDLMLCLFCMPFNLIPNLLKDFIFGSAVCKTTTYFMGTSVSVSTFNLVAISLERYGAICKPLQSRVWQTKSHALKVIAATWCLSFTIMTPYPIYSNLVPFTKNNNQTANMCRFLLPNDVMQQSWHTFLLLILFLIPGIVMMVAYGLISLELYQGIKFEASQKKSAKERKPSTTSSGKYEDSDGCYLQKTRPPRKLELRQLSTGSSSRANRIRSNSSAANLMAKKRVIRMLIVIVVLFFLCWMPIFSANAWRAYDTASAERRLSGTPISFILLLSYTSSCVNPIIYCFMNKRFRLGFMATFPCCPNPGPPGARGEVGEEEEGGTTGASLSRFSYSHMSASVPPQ

[7] = target: T6, cGMP-inhibited cyclic nucleotide phosphodiesterase 3A (PDE3A) (Homo sapiens, UniProt Q14432); assay: SAFETYscan PDE3A Enzymatic; type: biochemical; details: Inhibitor mode; 10 μM HU-MCA-13; read-out: Maximal Response
T6 construct: DiscoverX (SAFETYscan contract panel)

[8] = target: Histamine Receptor H1 (HRH1) (Homo sapiens, UniProt P35367); assay: SAFETYscan HRH1 Calcium Flux; type: cell-based; details: 10 μM HU-MCA-13, read-out: Maximal Response
[9] = target: T7, Insulin Receptor (tyrosine kinase) (INSR) (Homo sapiens, UniProt P06213); assay: SAFETYscan INSR kinase Binding; details: Inhibitor mode, 10 μM HU-MCA-13, read-out: Maximal Response
T7 construct: DiscoverX (KINOMEscan)

[10] = target: 5-Hydroxytryptamine (Serotonin) Receptor 1A (HTR1A) (Homo sapiens, UniProt P08908); assay: SAFETYscan HTR1A cAMP; type: cell-based; details: 10 μM HU-MCA-13
Sequence of 5-Hydroxytryptamine (Serotonin) Receptor 1A (HTR1A) (P08908 whole entry): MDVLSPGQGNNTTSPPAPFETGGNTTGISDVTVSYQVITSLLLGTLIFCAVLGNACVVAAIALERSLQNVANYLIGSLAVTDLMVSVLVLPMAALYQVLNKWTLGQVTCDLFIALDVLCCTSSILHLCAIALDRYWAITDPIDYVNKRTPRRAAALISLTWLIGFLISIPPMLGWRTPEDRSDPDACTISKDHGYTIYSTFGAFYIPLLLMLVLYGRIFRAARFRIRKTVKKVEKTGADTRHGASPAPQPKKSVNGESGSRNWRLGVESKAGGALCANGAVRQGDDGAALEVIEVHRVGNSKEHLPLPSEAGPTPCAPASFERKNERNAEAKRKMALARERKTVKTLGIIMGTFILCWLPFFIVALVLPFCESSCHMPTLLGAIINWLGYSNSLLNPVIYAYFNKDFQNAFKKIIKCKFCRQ

[11] = target: T8, Nuclear Hormone Androgen Receptor (AR) (Homo sapiens, UniProt P10275); assay: SAFETYscan AR Nuclear Hormone Receptor Translocation; type: cell-based; details: 10 μM HU-MCA-13
T8 construct: DiscoverX (SAFETYscan contract panel)
T8 sequence (P10275 whole entry): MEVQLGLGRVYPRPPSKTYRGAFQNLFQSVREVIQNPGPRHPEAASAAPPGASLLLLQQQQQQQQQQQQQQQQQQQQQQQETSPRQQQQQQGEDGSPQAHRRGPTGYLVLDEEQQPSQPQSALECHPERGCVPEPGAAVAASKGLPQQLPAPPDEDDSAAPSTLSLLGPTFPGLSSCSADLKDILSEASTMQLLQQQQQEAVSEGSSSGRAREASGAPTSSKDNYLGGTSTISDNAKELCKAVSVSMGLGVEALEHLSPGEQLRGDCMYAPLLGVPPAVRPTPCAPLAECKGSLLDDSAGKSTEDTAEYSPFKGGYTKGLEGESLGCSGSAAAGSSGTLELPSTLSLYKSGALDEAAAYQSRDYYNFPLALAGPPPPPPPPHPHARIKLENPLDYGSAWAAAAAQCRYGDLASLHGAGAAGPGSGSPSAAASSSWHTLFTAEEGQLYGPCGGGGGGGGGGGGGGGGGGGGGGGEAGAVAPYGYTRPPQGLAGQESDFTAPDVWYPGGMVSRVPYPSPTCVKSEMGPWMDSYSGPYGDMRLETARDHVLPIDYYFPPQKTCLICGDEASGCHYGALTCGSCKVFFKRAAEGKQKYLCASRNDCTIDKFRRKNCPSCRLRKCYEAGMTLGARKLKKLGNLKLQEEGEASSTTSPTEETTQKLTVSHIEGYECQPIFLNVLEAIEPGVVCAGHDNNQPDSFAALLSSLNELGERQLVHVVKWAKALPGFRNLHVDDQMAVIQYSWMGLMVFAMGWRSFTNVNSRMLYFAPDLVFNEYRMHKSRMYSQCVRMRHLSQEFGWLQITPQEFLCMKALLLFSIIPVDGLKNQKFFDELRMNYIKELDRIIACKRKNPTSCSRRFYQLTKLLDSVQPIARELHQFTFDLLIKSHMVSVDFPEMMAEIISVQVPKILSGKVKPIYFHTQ

[12] = target: Muscarinic acetylcholine Receptor M2 (CHRM2) (Homo sapiens, UniProt P08172); assay: SAFETYscan CHRM2 cAMP; type: cell-based; details: 10 μM HU-MCA-13, read-out: Maximal Response
Sequence of Muscarinic acetylcholine Receptor M2 (CHRM2) (P08172 whole entry): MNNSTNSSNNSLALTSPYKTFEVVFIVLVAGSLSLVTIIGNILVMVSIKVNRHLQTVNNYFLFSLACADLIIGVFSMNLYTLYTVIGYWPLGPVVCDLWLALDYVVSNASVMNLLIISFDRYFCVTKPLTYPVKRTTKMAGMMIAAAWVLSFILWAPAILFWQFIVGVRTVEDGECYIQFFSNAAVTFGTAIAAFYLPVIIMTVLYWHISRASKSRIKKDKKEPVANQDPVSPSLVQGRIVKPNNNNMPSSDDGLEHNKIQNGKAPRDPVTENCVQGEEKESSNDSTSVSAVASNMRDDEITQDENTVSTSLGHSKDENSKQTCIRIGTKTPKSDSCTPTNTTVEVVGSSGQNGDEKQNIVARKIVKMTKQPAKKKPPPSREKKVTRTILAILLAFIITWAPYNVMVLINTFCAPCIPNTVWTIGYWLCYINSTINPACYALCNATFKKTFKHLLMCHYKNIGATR

[13] = target: 5-Hydroxytryptamine (Serotonin) Receptor 1B (HTR1B) (Homo sapiens, UniProt P28222); assay: SAFETYscan HTR1B cAMP; type: cell-based; details: 10 μM HU-MCA-13, read-out: Maximal Response
Sequence of 5-Hydroxytryptamine (Serotonin) Receptor 1B (HTR1B) (P28222 whole entry): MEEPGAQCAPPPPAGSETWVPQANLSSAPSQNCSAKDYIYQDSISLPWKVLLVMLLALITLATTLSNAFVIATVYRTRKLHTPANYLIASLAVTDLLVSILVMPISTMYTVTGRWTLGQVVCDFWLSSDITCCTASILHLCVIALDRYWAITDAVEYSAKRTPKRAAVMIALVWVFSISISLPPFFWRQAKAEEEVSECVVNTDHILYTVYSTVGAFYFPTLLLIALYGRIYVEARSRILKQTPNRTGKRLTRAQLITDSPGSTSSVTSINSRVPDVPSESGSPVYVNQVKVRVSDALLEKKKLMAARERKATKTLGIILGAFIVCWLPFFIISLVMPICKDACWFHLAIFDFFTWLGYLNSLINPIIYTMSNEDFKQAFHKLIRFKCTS

[14] = target: Adrenergic Receptor β2 (ADRB2) (Homo sapiens, UniProt P07550); assay: SAFETYscan ADRB2 cAMP; type: cell-based; details: 10 μM HU-MCA-13, read-out: Maximal Response
Sequence of Adrenergic Receptor β2 (ADRB2) (P07550 whole entry): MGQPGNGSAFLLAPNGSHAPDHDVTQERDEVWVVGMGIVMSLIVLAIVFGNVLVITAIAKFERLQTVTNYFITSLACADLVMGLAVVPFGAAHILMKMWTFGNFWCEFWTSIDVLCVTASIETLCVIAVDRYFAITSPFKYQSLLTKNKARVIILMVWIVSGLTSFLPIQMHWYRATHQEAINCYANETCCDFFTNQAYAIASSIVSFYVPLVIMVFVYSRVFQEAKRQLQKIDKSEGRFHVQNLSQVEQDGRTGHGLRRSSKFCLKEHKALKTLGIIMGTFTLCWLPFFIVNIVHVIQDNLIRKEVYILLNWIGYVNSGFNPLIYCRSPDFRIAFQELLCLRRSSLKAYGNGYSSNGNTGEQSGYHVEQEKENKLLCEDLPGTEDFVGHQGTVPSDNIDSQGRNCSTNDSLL

[15] = target: Dopamine Receptor D2 (DRD2S) (Homo sapiens, UniProt P14416); assay: SAFETYscan DRD2S cAMP; type: cell-based; details: 10 μM HU-MCA-13
Sequence of Dopamine Receptor D2 (DRD2S) (P14416 1-414 isoform P14416-2): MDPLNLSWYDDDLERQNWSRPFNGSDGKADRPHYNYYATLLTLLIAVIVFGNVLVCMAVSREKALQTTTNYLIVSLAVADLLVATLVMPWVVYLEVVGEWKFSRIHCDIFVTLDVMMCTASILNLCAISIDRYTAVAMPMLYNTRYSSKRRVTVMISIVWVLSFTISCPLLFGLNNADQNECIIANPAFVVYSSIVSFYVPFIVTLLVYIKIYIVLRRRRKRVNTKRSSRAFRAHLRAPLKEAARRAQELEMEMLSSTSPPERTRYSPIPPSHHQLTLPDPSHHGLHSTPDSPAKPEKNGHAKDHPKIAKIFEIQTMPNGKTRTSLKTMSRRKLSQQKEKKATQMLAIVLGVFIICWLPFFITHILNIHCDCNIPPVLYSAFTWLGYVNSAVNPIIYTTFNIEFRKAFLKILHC

PC12 cells = assay: Cytotoxicity (cell morphology, LDH release); type: cell-based; details: 10 μM
[16] = target: Opioid Receptor Mu 1 (OPRM1) (Homo sapiens, UniProt P35372); assay: cell-based; details: 10 μM HU-MCA-13, read-out: Maximal Response
Sequence of Opioid Receptor Mu 1 (OPRM1) (P35372 whole entry): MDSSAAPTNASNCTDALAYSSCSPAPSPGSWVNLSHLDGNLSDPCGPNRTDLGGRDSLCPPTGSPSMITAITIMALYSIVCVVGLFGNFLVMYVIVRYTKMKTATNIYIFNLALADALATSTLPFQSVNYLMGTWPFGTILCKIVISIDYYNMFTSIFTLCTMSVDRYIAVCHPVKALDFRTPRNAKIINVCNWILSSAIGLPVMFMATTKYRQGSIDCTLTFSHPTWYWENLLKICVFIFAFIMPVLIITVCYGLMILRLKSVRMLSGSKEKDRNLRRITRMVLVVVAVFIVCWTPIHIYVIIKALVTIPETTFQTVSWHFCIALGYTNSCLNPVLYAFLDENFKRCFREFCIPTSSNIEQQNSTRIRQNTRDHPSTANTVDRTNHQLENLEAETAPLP

[17] = target: Voltage-gated L-type calcium channel (CAV1.2) (Homo sapiens, UniProt Q13936); assay: in vitro; design: dose or concentration left out as unconfirmed
[18] = target: T9, Kv7.1/KCNE Potassium voltage-gated channel (KvLQT1/minK) (Homo sapiens, UniProt P51787); assay: SAFETYscan KvLQT1/minK Ion channel; type: cell-based; details: 10 μM HU-MCA-13, read-out: Maximal Response
T9 construct: DiscoverX (SAFETYscan contract panel)

[19] = Antagonist mode, read-out: Maximal Response
[20] = read-out: Maximal Response, Agonist mode
[21] = read-out: Maximal Response, Antagonist mode

**Q.** Which results are given for `C=CCC1CCC[C@@H](CCC(=O)O)C1=C` (stereo partly drawn) [Compound 13]?
**A.** Maximal Response ([1]; Agonist mode): 24.55%; Emax [1, 19]: 0%; Emax [1, 20]: 24.5%; Emax [2]: 0%; Emax ([3]; Agonist mode): 0%; Emax ([3]; Antagonist mode): 2.28%; Emax [4]: 0%; kidney (creatinine and blood urea nitrogen) functions (male C57BL/6 mice; 24 hours after 250 mg/kg iv): normal; liver (ALP, AST, ALT) functions (male C57BL/6 mice; 24 hours after 250 mg/kg iv): normal; bilirubin concentration (male C57BL/6 mice; in both control and HU-MCA-13-injected mice): some fluctuation; blood count, electrolytes, coagulation parameters (male C57BL/6 mice; vs DMSO 1% control, 24 hours after 250 mg/kg iv): No difference; Emax [5]: 4.27%; Emax ([6]; Agonist mode): 1.56%; Emax ([6]; Antagonist mode): 0%; Emax [7]: 3.21%; Emax ([8]; Agonist mode): 0%; Emax ([8]; Antagonist mode): 1.05%; Emax [9]: 3.22%; Emax [10, 20]: 7.66%; Emax [10, 21]: 0%; Emax [11, 19]: 5.27%; Emax [11, 20]: 0%; Emax ([12]; Agonist mode): 11.7%; Emax ([12]; Antagonist mode): 0%; Emax ([13]; Agonist mode): 10.5%; Emax ([13]; Antagonist mode): 0%; Emax ([14]; Agonist mode): 1.29%; Emax ([14]; Antagonist mode): 8.23%; Emax [15, 20]: 0%; Emax [15, 21]: 0.51%; cytotoxicity (in words) (PC12 cells): not toxic to neurons; Emax ([16]; OPRM1, Agonist mode): 9.31%; Emax ([16]; OPRM1, Antagonist mode): 0.38%; Emax [17]: 3.82%; Emax ([18]; Blocker mode): 0.55%; Emax ([18]; Opener mode): 0%
